Test results from the kinase profiling compilation of Christmann-Franck et al. (2016).

Tests used:
Test in all cases: KINOMEscan competition binding
Settings in all cases: compound 10.0 µM
[1] = molecular target: LYN (human) (UniProt P07948)
[2] = molecular target: TAOK1 (human) (UniProt Q7L7X3)
[3] = molecular target: CAMK1G (human) (UniProt Q96NX5)
[4] = molecular target: PAK1 (human) (UniProt Q13153)
[5] = molecular target: ACVR1 (human) (UniProt Q04771)
[6] = molecular target: AAK1 (human) (UniProt Q2M2I8)
Sequence of AAK1 (human) (Q2M2I8 whole entry, looked up): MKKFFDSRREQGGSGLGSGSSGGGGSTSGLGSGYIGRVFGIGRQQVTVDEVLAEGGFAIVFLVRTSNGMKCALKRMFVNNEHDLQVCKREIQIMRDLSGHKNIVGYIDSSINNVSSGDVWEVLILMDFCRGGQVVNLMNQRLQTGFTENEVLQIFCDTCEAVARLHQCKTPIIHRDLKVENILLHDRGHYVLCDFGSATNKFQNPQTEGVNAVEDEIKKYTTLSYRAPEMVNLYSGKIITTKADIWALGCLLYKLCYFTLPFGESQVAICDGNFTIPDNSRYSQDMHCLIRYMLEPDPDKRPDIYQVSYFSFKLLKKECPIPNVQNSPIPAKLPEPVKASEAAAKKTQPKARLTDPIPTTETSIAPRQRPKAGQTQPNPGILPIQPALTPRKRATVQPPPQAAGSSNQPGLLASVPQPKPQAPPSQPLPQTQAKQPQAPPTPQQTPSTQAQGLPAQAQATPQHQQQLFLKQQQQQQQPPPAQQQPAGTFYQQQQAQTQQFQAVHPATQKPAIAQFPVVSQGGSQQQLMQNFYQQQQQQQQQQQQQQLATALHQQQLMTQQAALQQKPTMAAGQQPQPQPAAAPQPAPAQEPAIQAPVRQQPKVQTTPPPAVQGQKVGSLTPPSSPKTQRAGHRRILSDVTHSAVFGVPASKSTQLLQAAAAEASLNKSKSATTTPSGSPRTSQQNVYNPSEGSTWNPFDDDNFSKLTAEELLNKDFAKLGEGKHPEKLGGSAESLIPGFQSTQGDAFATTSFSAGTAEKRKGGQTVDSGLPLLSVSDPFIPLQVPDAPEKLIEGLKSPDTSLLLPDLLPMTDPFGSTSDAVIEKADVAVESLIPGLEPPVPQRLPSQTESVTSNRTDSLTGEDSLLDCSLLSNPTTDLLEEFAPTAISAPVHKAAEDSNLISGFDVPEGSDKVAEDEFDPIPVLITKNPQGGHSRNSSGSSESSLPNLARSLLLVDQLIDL

[7] = molecular target: RPS6KA2 KD2 (human) (UniProt Q15349)
[8] = molecular target: MAPK11 (human) (UniProt Q15759)
[9] = molecular target: CDC2L2 (human) (UniProt Q9UQ88)
[10] = molecular target: RPS6KA3 KD1 (human) (UniProt P51812)
[11] = molecular target: GSK3A (human) (UniProt P49840)
[12] = molecular target: PIP4K2B (human) (UniProt P78356)
[13] = molecular target: JAK1 JH1 catalytic (human) (UniProt P23458)
[14] = molecular target: MAP3K3 (human) (UniProt Q99759)
[15] = molecular target: RET (human) (UniProt P07949)
[16] = molecular target: CSNK1G1 (human) (UniProt Q9HCP0)
[17] = system: FLT3 (human), P36888 [N841I]
[18] = molecular target: AXL (human) (UniProt P30530)
[19] = molecular target: STK32B (human) (UniProt Q9NY57)
[20] = molecular target: MAP3K12 (human) (UniProt Q12852)
Sequence of MAP3K12 (human) (Q12852 whole entry, looked up): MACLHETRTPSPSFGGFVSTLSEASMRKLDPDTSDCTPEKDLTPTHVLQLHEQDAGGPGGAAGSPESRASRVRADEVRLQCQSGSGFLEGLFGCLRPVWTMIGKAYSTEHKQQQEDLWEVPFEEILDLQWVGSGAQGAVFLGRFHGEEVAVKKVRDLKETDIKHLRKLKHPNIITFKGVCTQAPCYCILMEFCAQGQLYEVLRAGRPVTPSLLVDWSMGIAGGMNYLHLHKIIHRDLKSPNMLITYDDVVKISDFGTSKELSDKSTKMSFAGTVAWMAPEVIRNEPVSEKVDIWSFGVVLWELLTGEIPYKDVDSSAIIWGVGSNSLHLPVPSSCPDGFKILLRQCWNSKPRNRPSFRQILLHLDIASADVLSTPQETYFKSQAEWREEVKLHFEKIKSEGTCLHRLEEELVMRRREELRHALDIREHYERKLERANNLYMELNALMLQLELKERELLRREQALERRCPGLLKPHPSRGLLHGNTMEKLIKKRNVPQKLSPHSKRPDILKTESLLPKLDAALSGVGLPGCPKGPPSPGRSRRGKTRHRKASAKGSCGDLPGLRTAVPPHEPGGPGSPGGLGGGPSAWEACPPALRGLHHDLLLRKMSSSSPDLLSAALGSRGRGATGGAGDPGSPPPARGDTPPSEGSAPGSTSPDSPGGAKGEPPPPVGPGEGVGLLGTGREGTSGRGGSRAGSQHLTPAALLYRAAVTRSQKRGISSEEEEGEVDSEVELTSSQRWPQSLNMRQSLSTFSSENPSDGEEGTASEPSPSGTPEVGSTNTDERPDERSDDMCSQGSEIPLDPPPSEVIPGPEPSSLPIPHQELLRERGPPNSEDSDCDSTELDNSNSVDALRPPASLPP

[21] = molecular target: SRPK3 (human) (UniProt Q9UPE1)
[22] = molecular target: CSNK1A1L (human) (UniProt Q8N752)
[23] = molecular target: PRKACA (human) (UniProt P17612)
[24] = molecular target: FGFR4 (human) (UniProt P22455)
[25] = molecular target: PIK3C2B (human) (UniProt O00750)
[26] = molecular target: PRKX (human) (UniProt P51817)
[27] = molecular target: MAP2K2 (human) (UniProt P36507)
[28] = molecular target: MAP3K4 (human) (UniProt Q9Y6R4)
[29] = molecular target: YES1 (human) (UniProt P07947)
[30] = molecular target: EPHA5 (human) (UniProt P54756)
[31] = molecular target: NUAK1 (human) (UniProt O60285)
[32] = molecular target: CDK9 (human) (UniProt P50750)
[33] = molecular target: MST1R (human) (UniProt Q04912)
[34] = molecular target: TNNI3K (human) (UniProt Q59H18)
[35] = molecular target: ABL2 (human) (UniProt P42684)
[36] = molecular target: TNIK (human) (UniProt Q9UKE5)
[37] = molecular target: SIK2 (human) (UniProt Q9H0K1)
Sequence of SIK2 (human) (Q9H0K1 whole entry, looked up): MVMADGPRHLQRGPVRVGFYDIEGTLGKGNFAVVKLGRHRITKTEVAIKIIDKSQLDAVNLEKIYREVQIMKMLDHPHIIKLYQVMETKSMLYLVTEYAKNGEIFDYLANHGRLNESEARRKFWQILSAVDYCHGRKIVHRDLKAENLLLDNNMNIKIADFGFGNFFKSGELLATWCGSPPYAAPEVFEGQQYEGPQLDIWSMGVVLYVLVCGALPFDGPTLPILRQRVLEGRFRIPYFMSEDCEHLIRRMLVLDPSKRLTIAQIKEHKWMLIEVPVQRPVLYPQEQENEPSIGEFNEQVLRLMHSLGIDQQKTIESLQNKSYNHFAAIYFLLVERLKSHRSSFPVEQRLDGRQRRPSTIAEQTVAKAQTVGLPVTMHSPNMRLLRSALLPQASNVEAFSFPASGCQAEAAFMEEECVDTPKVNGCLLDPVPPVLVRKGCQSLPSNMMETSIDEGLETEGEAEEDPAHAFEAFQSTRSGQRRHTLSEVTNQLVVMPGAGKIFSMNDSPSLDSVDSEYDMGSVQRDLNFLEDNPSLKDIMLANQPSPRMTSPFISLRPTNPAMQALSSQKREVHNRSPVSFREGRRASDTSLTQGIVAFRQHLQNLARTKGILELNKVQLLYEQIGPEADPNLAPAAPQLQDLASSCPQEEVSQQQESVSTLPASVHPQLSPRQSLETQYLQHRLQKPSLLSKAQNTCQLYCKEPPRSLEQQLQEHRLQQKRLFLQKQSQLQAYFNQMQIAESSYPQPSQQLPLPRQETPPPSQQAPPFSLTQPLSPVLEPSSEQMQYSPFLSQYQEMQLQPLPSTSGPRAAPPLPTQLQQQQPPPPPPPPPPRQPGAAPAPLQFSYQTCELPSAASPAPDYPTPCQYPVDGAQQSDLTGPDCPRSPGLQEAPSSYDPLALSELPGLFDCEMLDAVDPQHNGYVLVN

[38] = molecular target: MAP4K5 (human) (UniProt Q9Y4K4)
[39] = molecular target: MAPK8 (human) (UniProt P45983)
[40] = molecular target: LATS1 (human) (UniProt O95835)

Sequence of PAK1 (human) (Q13153 whole entry, looked up): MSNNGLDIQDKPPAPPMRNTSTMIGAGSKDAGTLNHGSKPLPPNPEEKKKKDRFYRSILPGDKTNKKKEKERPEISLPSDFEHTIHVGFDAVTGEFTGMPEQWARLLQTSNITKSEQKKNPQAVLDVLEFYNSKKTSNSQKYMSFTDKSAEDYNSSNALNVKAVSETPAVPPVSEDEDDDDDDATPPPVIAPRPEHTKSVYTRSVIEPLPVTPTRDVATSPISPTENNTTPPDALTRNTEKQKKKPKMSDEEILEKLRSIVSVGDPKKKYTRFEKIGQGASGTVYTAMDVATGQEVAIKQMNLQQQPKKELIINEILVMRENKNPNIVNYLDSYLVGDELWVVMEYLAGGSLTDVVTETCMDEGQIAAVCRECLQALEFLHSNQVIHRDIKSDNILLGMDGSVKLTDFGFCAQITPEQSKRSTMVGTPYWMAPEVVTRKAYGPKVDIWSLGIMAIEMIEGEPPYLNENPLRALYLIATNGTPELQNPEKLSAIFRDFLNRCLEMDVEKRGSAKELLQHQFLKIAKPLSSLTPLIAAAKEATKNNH
Sequence of ACVR1 (human) (Q04771 whole entry, looked up): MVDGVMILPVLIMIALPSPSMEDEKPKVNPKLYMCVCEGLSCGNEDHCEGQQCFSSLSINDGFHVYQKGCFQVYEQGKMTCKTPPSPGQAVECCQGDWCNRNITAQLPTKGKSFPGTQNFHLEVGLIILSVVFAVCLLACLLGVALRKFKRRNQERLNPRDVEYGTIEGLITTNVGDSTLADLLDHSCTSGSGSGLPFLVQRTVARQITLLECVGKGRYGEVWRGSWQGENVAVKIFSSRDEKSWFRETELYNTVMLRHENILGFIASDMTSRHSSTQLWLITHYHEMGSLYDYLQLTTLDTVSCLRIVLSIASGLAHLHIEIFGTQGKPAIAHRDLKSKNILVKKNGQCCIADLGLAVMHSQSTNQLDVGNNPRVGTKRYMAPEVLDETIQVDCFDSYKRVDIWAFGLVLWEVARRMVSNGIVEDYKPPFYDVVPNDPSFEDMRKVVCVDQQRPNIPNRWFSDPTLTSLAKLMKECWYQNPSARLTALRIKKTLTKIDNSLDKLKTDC
Sequence of TAOK1 (human) (Q7L7X3 whole entry, looked up): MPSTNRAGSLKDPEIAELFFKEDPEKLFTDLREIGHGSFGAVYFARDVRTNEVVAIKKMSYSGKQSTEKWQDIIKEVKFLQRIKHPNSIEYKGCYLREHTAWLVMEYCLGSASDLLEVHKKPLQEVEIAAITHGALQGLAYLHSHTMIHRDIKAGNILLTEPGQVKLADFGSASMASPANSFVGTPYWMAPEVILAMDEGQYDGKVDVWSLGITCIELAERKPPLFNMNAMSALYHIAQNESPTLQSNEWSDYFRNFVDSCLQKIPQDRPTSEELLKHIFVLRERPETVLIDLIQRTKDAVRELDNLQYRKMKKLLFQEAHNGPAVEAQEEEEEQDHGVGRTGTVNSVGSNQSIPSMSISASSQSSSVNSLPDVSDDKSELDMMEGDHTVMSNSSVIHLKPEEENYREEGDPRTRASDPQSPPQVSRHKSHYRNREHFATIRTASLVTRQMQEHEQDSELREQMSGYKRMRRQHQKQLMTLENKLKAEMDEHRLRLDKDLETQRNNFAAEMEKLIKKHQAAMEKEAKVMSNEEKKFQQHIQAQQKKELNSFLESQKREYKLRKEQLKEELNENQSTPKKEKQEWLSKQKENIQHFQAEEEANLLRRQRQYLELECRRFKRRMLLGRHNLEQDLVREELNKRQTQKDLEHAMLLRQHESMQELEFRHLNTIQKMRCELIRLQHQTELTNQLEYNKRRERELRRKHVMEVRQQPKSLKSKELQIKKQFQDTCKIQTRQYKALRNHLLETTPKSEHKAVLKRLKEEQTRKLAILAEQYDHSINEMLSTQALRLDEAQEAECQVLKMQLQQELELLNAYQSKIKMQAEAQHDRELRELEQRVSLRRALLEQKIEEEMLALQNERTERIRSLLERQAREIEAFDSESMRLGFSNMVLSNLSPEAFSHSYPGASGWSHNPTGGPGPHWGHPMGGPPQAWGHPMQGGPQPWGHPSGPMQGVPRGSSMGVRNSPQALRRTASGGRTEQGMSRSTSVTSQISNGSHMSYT

Compound	kinase still bound, per cent of control [1]	kinase still bound, per cent of control [2]	kinase still bound, per cent of control [3]	kinase still bound, per cent of control [4]	kinase still bound, per cent of control [5]	kinase still bound, per cent of control [6]	kinase still bound, per cent of control [7]	kinase still bound, per cent of control [8]	kinase still bound, per cent of control [9]	kinase still bound, per cent of control [10]	kinase still bound, per cent of control [11]	kinase still bound, per cent of control [12]	kinase still bound, per cent of control [13]	kinase still bound, per cent of control [14]	kinase still bound, per cent of control [15]	kinase still bound, per cent of control [16]	kinase still bound, per cent of control [17]	kinase still bound, per cent of control [18]	kinase still bound, per cent of control [19]	kinase still bound, per cent of control [20]	further results
Nc1ccc(-c2ccc3ncc4ccc(=O)n(-c5cccc(C(F)(F)F)c5)c4c3c2)cn1	100%	62%	88%	95%	86%	71%	86%	83%	98%	80%	100%	100%	92%	84%	100%	100%	11%	74%	100%	100%	kinase still bound, per cent of control [21]: 95%; kinase still bound, per cent of control [22]: 89%; kinase still bound, per cent of control [23]: 100%; kinase still bound, per cent of control [24]: 100%; kinase still bound, per cent of control [25]: 37%; kinase still bound, per cent of control [26]: 100%; kinase still bound, per cent of control [27]: 100%; kinase still bound, per cent of control [28]: 100%; kinase still bound, per cent of control [29]: 100%; kinase still bound, per cent of control [30]: 100%; kinase still bound, per cent of control [31]: 83%; kinase still bound, per cent of control [32]: 93%; kinase still bound, per cent of control [33]: 90%; kinase still bound, per cent of control [34]: 100%; kinase still bound, per cent of control [35]: 100%; kinase still bound, per cent of control [36]: 68%; kinase still bound, per cent of control [37]: 73%; kinase still bound, per cent of control [38]: 100%; kinase still bound, per cent of control [39]: 60%; kinase still bound, per cent of control [40]: 100%
C=CC(=O)Nc1cccc(Nc2nc(N[C@H]3CC[C@H](N(C)C)CC3)nc3c2ncn3C(C)C)c1	50%	35%	93%	78%	100%	45%	81%	89%	98%	3.6%	100%	54%	88%	2.7%	73%	28%	0%	40%	100%	71%	kinase still bound, per cent of control [21]: 47%; kinase still bound, per cent of control [22]: 1.5%; kinase still bound, per cent of control [23]: 100%; kinase still bound, per cent of control [24]: 98%; kinase still bound, per cent of control [25]: 100%; kinase still bound, per cent of control [26]: 100%; kinase still bound, per cent of control [27]: 100%; kinase still bound, per cent of control [28]: 100%; kinase still bound, per cent of control [29]: 23%; kinase still bound, per cent of control [30]: 76%; kinase still bound, per cent of control [31]: 93%; kinase still bound, per cent of control [32]: 100%; kinase still bound, per cent of control [33]: 100%; kinase still bound, per cent of control [34]: 62%; kinase still bound, per cent of control [35]: 94%; kinase still bound, per cent of control [36]: 35%; kinase still bound, per cent of control [37]: 69%; kinase still bound, per cent of control [38]: 60%; kinase still bound, per cent of control [39]: 100%; kinase still bound, per cent of control [40]: 100%
C=CC(=O)Nc1cccc(Oc2nc(Nc3ccc(N4CCN(C)CC4)cc3OC)ncc2Cl)c1	100%	100%	100%	100%	100%	7%	28%	100%	100%	100%	100%	100%	100%	100%	100%	100%	0.25%	100%	100%	100%	kinase still bound, per cent of control [21]: 8.4%; kinase still bound, per cent of control [22]: 100%; kinase still bound, per cent of control [23]: 100%; kinase still bound, per cent of control [24]: 100%; kinase still bound, per cent of control [25]: 100%; kinase still bound, per cent of control [26]: 100%; kinase still bound, per cent of control [27]: 100%; kinase still bound, per cent of control [28]: 100%; kinase still bound, per cent of control [29]: 100%; kinase still bound, per cent of control [30]: 100%; kinase still bound, per cent of control [31]: 0.65%; kinase still bound, per cent of control [32]: 100%; kinase still bound, per cent of control [33]: 100%; kinase still bound, per cent of control [34]: 100%; kinase still bound, per cent of control [35]: 100%; kinase still bound, per cent of control [36]: 100%; kinase still bound, per cent of control [37]: 20%; kinase still bound, per cent of control [38]: 100%; kinase still bound, per cent of control [39]: 17%; kinase still bound, per cent of control [40]: 100%
